Test results as given in paper PMC6927504, “Screening of House Dust from Chinese Homes for Chemicals with Liver X Receptors Binding Activities and Characterization of Atherosclerotic Activity Using an in Vitro Macrophage Cell Line and ApoE^−/− Mice” (Environmental Health Perspectives, 2019).

Tested on: mouse peritoneal macrophages
Assay: Foam cell formation in peritoneal macrophages isolated from exposed C57BL/6 mice
Assay type: in vivo
Settings: 200 mg/kg BW for 7 d, p<0.05
Description: RAW264.7 cells or mouse peritoneal macrophages were plated in 24-well plates at 6.0×10^4 cells/well and grown overnight. Then the medium was removed and fresh DMEM-F12 containing 10% FBS, 20μg/mL oxidized low-density lipoprotein (ox-LDL), and 0.1% DMSO (control; n=3 ) or TPHP at the concentration of 1–20,000 nM ( n=3 per group) was added. The cells were washed with PBS, followed by fixing in 4% paraformaldehyde for 30 min and staining with boron-dipyrromethene (BODIPY) 493/503 ( 20μg/mL ) and 4′,6-diamidino-2-phenylindole (DAPI; 100 ng/mL ) for 10 min. Foam cell formation was analyzed by high-content microscopy using ImageXpress® Micro XL (Molecular Devices). From each well, 25 image fields were scanned, and MetaXpress® (Molecular Devices) was used to quantify compartmentalized changes in the fluorescence of each cell.
All experiments related to animals were approved by the institutional animal care and use committee of Peking University and followed the guidelines for animal experiments of the university as well as for experimental animals in China. […] Body weight (BW) was measured every week during the dosing period. […] Considering that this study assessed the effects of short-term exposure to TPHP, whereas humans are exposed to TPHP over a lifelong period, the present study used exposure doses that were higher than that of human exposure from house dust. […]

`O=P(Oc1ccccc1)(Oc1ccccc1)Oc1ccccc1` [TPHP, triphenyl phosphate] was tested, and the “Foam cell staining in peritoneal macrophages relative to control” value was 2.88±0.95 fold.
